The values that follow come from patent publication US8119624B2, “Fused phenyl amido heterocyclic compounds” (Pfizer Inc., priority 2006, dated 2012).

Each structure is given as a SMILES string.

For this assay, the target named is T1, Full-length glucokinase (beta cell isoform) (Homo sapiens, UniProt P35557).
T1 construct: Full-length glucokinase (beta cell isoform) was His-tagged at N-terminus; His tag (N); made in house
T1 sequence (P35557 1-465): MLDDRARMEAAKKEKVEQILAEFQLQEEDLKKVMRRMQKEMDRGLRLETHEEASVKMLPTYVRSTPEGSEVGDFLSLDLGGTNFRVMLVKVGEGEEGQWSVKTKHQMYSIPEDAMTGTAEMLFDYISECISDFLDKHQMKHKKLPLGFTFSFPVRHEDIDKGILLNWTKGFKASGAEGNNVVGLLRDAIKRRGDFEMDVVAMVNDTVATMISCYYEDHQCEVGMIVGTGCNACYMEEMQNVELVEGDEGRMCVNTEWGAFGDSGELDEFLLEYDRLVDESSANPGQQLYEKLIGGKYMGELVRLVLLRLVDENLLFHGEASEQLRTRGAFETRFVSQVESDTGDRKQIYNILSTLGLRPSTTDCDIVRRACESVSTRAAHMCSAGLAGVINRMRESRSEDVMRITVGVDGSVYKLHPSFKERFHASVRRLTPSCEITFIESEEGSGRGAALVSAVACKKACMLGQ
The experiment in a line: Glucokinase biochemical assay (PK/LDH-coupled, NADH depletion at 340 nm): % activation, EC50, % max activation. The conditions noted are these: 5 mM glucose; for activation at 10 µM: 10 uM compound, % Activation=(Va/Vo−1)×100, read-out: % Activation at 10 uM; for EC50: GK activation, read-out: EC50; for Emax: fitted maximum activation, read-out: % Max Activation. Summed up: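 Activation expressed as (Va/Vo−1)×100, where initial rates with and without compound come from NADH depletion at 340 nm over 200–900 s. Enzyme is His-tagged human beta-cell GK, full length, run at room temperature in HEPES buffer with 1 mM ATP and 5 mM glucose. DMSO 1%.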

Usually EC50 stands for the concentration at which the effect is half-maximal. Take `CC(=O)N1CC(Oc2cc(C(=O)Nc3cnn(C)n3)cc3c2CC(C)(C)O3)C1` [Example 195, 4-(1-Acetyl-azetidin-3-yloxy)-2,2-dimethyl-2,3-dihydro-benzofuran-6-carboxylic acid (2-methyl-2H-[1,2,3]triazol-4-yl)-amide]: the activation at 10 µM came out at 98.9% and the EC50 was > 10000 nM.
For `CC(=O)N1CC(Oc2cc(C(=O)Nc3ccn(C)n3)cc3c2CC(C)(C)O3)C1` [Example 196, 4-(1-Acetyl-azetidin-3-yloxy)-2,2-dimethyl-2,3-dihydro-benzofuran-6-carboxylic acid (1-methyl-1H-pyrazol-3-yl)-amide], in that order: 62% and > 10000 nM.
The like results for `Cn1ccc(NC(=O)c2cc(Oc3ccc(C(=O)N4CCC4)c(F)c3)cc3c2CC(C)(C)O3)n1` [Example 197, 6-[4-(Azetidine-1-carbonyl)-3-fluoro-phenoxy]-2,2-dimethyl-2,3-dihydro-benzofuran-4-carboxylic acid (1-methyl-1H-pyrazol-3-yl)-amide] were, in that order, 77.6% and > 10000 nM.
For `Cn1ncc(NC(=O)c2cc(Oc3ccc(S(C)(=O)=O)cc3)cc3c2CC(C)(C)O3)n1` [Example 198, 6-(4-Methanesulfonyl-phenoxy)-2,2-dimethyl-2,3-dihydro-benzofuran-4-carboxylic acid (2-methyl-2H-[1,2,3]triazol-4-yl)-amide], in that order: 51.4% and > 10000 nM.
`Cn1ccc(NC(=O)c2cc(Oc3ccc(S(C)(=O)=O)cc3)cc3c2CC(C)(C)O3)n1` [Example 199, 6-(4-Methanesulfonyl-phenoxy)-2,2-dimethyl-2,3-dihydro-benzofuran-4-carboxylic acid (1-methyl-1H-pyrazol-3-yl)-amide]: the activation at 10 µM is 40.3% and the EC50 was > 10000 nM.
Consider `Cn1ccc(NC(=O)c2cc(Oc3ccc(S(C)(=O)=O)cc3)c3c(c2)OC(CO)C3)n1` (stereo not drawn) [Example 200, 2-Hydroxymethyl-4-(4-methanesulfonyl-phenoxy)-2,3-dihydro-benzofuran-6-carboxylic acid (1-methyl-1H-pyrazol-3-yl)-amide], for which the activation at 10 µM stood at 113%, the EC50 came out at 2900 nM and the Emax was 147%.
The like results for `COCC1Cc2c(Oc3ccc(S(C)(=O)=O)cc3)cc(C(=O)Nc3ccn(C)n3)cc2O1` (stereo not drawn) [Example 201, 4-(4-Methanesulfonyl-phenoxy)-2-methoxymethyl-2,3-dihydro-benzofuran-6-carboxylic acid (1-methyl-1H-pyrazol-3-yl)-amide] were, in that order, 107%, 2800 nM and 137%.
The like results for `Cn1ccc(NC(=O)c2cc(Oc3ccc(C(=O)N4CCC4)c(F)c3)c3c(c2)OC(CO)C3)n1` (stereo not drawn) [Example 202, 4-[4-(Azetidine-1-carbonyl)-3-fluoro-phenoxy]-2-hydroxymethyl-2,3-dihydro-benzofuran-6-carboxylic acid (1-methyl-1H-pyrazol-3-yl)-amide] were, in that order, 121%, 360 nM and 108%.
The like results for `Cc1ccc(NC(=O)c2cc(Oc3ccc(C(=O)N4CCC4)c(F)c3)c3c(c2)OC(CO)C3)nc1` (stereo not drawn) [Example 203, 4-[4-(Azetidine-1-carbonyl)-3-fluoro-phenoxy]-2-hydroxymethyl-2,3-dihydro-benzofuran-6-carboxylic acid (5-methyl-pyridin-2-yl)-amide] were, in that order, 82.6%, 810 nM and 91%.
As to `COCC1Cc2c(Oc3ccc(C(=O)N4CCC4)c(F)c3)cc(C(=O)Nc3ccn(C)n3)cc2O1` (stereo not drawn) [Example 204, 4-[4-(Azetidine-1-carbonyl)-3-fluoro-phenoxy]-2-methoxymethyl-2,3-dihydro-benzofuran-6-carboxylic acid (1-methyl-1H-pyrazol-3-yl)-amide], the activation at 10 µM came to 73.9%, the EC50 stood at 2000 nM and the Emax was 94%.
The like results for `COCC1Cc2c(Oc3ccc(C(=O)N(C)C)c(F)c3)cc(C(=O)Nc3ccn(C)n3)cc2O1` (stereo not drawn) [Example 205, 4-(4-Dimethylcarbamoyl-3-fluoro-phenoxy)-2-methoxymethyl-2,3-dihydro-benzofuran-6-carboxylic acid (1-methyl-1H-pyrazol-3-yl)-amide] were, in that order, 90.8%, 420 nM and 94.5%.
The like results for `COCC1Cc2c(Oc3ccc(C(=O)N4CCC4)cc3)cc(C(=O)Nc3ccn(C)n3)cc2O1` (stereo not drawn) [Example 208, 4-[4-(Azetidine-1-carbonyl)-phenoxy]-2-methoxymethyl-2,3-dihydro-benzofuran-6-carboxylic acid (1-methyl-1H-pyrazol-3-yl)-amide] were, in that order, 83.9%, 710 nM and 98%.
On to `COCC1Cc2c(Oc3ccc(C(=O)N(C)C)cc3)cc(C(=O)Nc3ccn(C)n3)cc2O1` (stereo not drawn) [Example 211, 4-(4-Dimethylcarbamoyl-phenoxy)-2-methoxymethyl-2,3-dihydro-benzofuran-6-carboxylic acid (1-methyl-1H-pyrazol-3-yl)-amide], for which the activation at 10 µM stood at 83.5%, the EC50 worked out at 1300 nM and the Emax is 90%.
For the compound `CC(C)Oc1cc(C(=O)Nc2ccn(C)n2)cc2c1CC(COc1ccccc1)O2` (stereo not drawn) [Example 214, 4-Isopropoxy-2-phenoxymethyl-2,3-dihydro-benzofuran-6-carboxylic acid (1-methyl-1H-pyrazol-3-yl)-amide], the activation at 10 µM was 12%.
On the same count and under the same terms, to `CC(C)Oc1cc(C(=O)Nc2ccn(C)n2)cc2c1CC(CO)O2` (stereo not drawn) [Example 215, 2-Hydroxymethyl-4-isopropoxy-2,3-dihydro-benzofuran-6-carboxylic acid (1-methyl-1H-pyrazol-3-yl)-amide] belongs 16.7%; to `COCC1Cc2c(OC(C)C)cc(C(=O)Nc3ccn(C)n3)cc2O1` (stereo not drawn) [Example 216, 4-Isopropoxy-2-methoxymethyl-2,3-dihydro-benzofuran-6-carboxylic acid (1-methyl-1H-pyrazol-3-yl)-amide], 13%.
Still for that read-out and setting: the result for `CCOCC1Cc2c(OC(C)C)cc(C(=O)Nc3ccn(C)n3)cc2O1` (stereo not drawn) [Example 217, 2-Ethoxymethyl-4-isopropoxy-2,3-dihydro-benzofuran-6-carboxylic acid (1-methyl-1H-pyrazol-3-yl)-amide] reads 5.3%.
As to `CC(C)Oc1cc(C(=O)Nc2ccn(C)n2)cc2c1CC(CN(C)C)O2` (stereo not drawn) [Example 218, 2-Dimethylaminomethyl-4-isopropoxy-2,3-dihydro-benzofuran-6-carboxylic acid (1-methyl-1H-pyrazol-3-yl)-amide], the activation at 10 µM came out at 43.1% and the EC50 is > 10000 nM.
As for `CC(C)Oc1cc(C(=O)Nc2ccn(C)n2)cc2c1CC(CNC1CC1)O2` (stereo not drawn) [Example 219, 2-Cyclopropylaminomethyl-4-isopropoxy-2,3-dihydro-benzofuran-6-carboxylic acid (1-methyl-1H-pyrazol-3-yl)-amide], the activation at 10 µM stood at 8%.
Still for that read-out and setting: the result for `CC(C)Oc1cc(C(=O)Nc2ccccn2)cc2c1CC(Cc1ccccc1)O2` (stereo not drawn) [Example 220, 2-Benzyl-4-isopropoxy-2,3-dihydro-benzofuran-6-carboxylic acid pyridin-2-ylamide] reads 13.8%; that for `CC(C)Oc1cc(C(=O)Nc2ccn(C)n2)cc2c1CC(Cc1ccccc1)O2` (stereo not drawn) [Example 221, 2-Benzyl-4-isopropoxy-2,3-dihydro-benzofuran-6-carboxylic acid (1-methyl-1H-pyrazol-3-yl)-amide], 8.4%.
In the case of `Cn1ccc(NC(=O)c2cc(OCc3ccccc3)c3c(c2)OC(C(F)F)C3)n1` (stereo not drawn) [Example 222, 4-Benzyloxy-2-difluoromethyl-2,3-dihydro-benzofuran-6-carboxylic acid (1-methyl-1H-pyrazol-3-yl)-amide], the activation at 10 µM came to 61.1% and the EC50 was > 10000 nM.
For `Cn1ccc(NC(=O)c2cc(Oc3cc(F)c(C(=O)N4CCC4)c(F)c3)c3c(c2)OC(C(F)F)C3)n1` (stereo not drawn) [Example 223, 4-[4-(Azetidine-1-carbonyl)-3,5-difluoro-phenoxy]-2-difluoromethyl-2,3-dihydro-benzofuran-6-carboxylic acid (1-methyl-1H-pyrazol-3-yl)-amide], the activation at 10 µM was 112%, the EC50 was 680 nM and the Emax worked out at 127%.
For `Cn1ccc(NC(=O)c2cc(Oc3ccc(S(C)(=O)=O)cc3)c3c(c2)OC(CF)C3)n1` (stereo not drawn) [Example 224, 2-Fluoromethyl-4-(4-methanesulfonyl-phenoxy)-2,3-dihydro-benzofuran-6-carboxylic acid (1-methyl-1H-pyrazol-3-yl)-amide], in that order: 142%, 2300 nM and 160%.
